According to US8937180B2, “Method for preparing a polymer conjugate” (Nektar Therapeutics, priority 2006, dated 2015):

Columns and labels:
[1] = tested on: DU-145 prostate tumors; experiment: Anti-tumor activity in mice implanted with DU-145 prostate tumors; conditions: two doses (q7d×2), FIG. 2
[2] = Maximum tolerated dose in tumor-bearing athymic nude mice; conditions: mouse, in vivo, intravenous

Question: What does the source list for `CC(=O)O[C@@]12CO[C@@H]1C[C@H](O)[C@@]1(C)C(=O)[C@H](O)C3=C(C)[C@@H](OC(=O)[C@H](O)[C@@H](NC(=O)OC(C)(C)C)c4ccccc4)C[C@@](O)([C@@H](OC(=O)c4ccccc4)[C@H]21)C3(C)C` [docetaxel, Docetaxel]?
Answer: anti-tumor effect on tumor growth ([1]; 3 doses tested, 78 day observation period): good activity; time after which tumors recover and grow [1]: 30 to 50 days; MTD at 78 day ([2]; athymic nude, mice with DU-145 prostate tumors): ≤ 30 mg/kg; MTD ([2]; athymic nude mice, H460 NSCLC tumors, 2nd study): ≤ 30 mg/kg
